# In patent publication US20260356860A1, “2-SUBSTITUTED 3,4A,5,7,8,8A-HEXAHYDRO-4H-THIOPYRANO[4,3-DJPYRIMIDIN-4-ONES FOR WOUND TREATMENT” (priority 2022, published 2026):
# What was measured:
# [1] = test system: TK 1; details: cell-free assay; read-out: IC50, TK 1 inhibition; cited from earlier work
# [2] = test system: P. aeruginosa (derived from ATCC ® 15442 ™); assay: Bacteriostasis, log reduction; type: cell-based; details: P. aeruginosa ATCC 15442
# Method: (§1) In order to assess the log reduction capabilities of compounds of Formula (1), testing was performed on organisms that are found in acute and chronic wounds. Triplicate tubes were prepared for each bacteria using 50 μL of inoculum (about 1×10^6 CFU/mL) which was added to 450 μL of compound solution (compound of Formula (I)) (or 100 μL of inoculum in 900 μL of compound solution), resulting in a final inoculum of about 1×10^5 CFU/mL, as shown in Table 4.
# (§2) Tubes were mixed with a vortex and then incubated in a shaking incubator at 175 RPM and 35° C. to 37° C.
# (§3) Positive control in Tables 5a and 5b was 1 mL of 0.89% saline with 1 mL of the 1×10^6 CFU/mL of the organism.
# (§4) For Compounds 1, 7, 8, 10, and 18 in Tables 6, 7-A, 7-B, 8, 9, 10-A, 10-B, and 11: The compound solutions were prepared with compound (30 mg), polysorbate 20 (1.6 mL), butylene glycol (1.6 mL), phosphatidyl choline (0.66 g), ethanol (1.6 mL), hydroxypropyl cellulose (0.26 g), and ultra pure water (24.9 mL).
# (§5) XAV939 Control in Table X1 was XAV939 (30 mg), polysorbate 20 (1.6 mL), butylene glycol (1.6 mL), phosphatidyl choline (0.66 g), ethanol (1.6 mL), ultra pure water (24.9 mL), and hydroxypropyl cellulose (0.26 g).
# (§6) GO-HA Control in Table X2 was GO-HA (30 mg), polysorbate 20 (1.6 mL), butylene glycol (1.6 mL), phosphatidyl choline (0.66 g), ethanol (1.6 mL), ultra pure water (24.9 mL), and hydroxypropyl cellulose (0.26 g).
# (§7) For Compound 18+GO-HA in Tables 6 and X4: compound 18 (45 mg), GO-HA (45 mg), polysorbate 20 (2 mL), butylene glycol (2 mL), phosphotidyl choline (0.5 g), ethanol (2 mL), hydroxypropyl cellulose (0.40 g), and ultra pure water (40 mL).
# (§8) For XAV939+GO-HA in Tables 6 and X3-A, and X3-B: XAV939 (45 mg), GO-HA (45 mg), butylene glycol (2 mL), polysorbate 20 (2 mL), phosphotidyl choline (0.5 g), ethanol (2 mL), hydroxypropyl cellulose (0.40 g), and ultra pure water (40 mL).
# (§9) Testing was performed at two time points: 18 to 24 hours, and […].
# [3] = test system: E. coli (derived from ATCC ® 25922 ™); assay: Bacteriostasis, log reduction; type: cell-based; details: E. coli ATCC 25922
# Method: as §1, §2, §3, §4, §5, §6, §7, §8, §9
# [4] = test system: E. faecalis (derived from ATCC ® 19433 ™); assay: Bacteriostasis, log reduction; type: cell-based; details: E. faecalis ATCC 19433
# Method: as §1, §2, §3, §4, §5, §6, §7, §8, §9
# [5] = test system: E. coli (derived from ATCC ® 8739 ™); assay: Bacteriostasis, log reduction; type: cell-based; details: E. coli ATCC 8739
# Method: as §1, §2, §3, §4, §5, §6, §7, §8, §9
# [6] = test system: S. aureus (derived from ATCC ® 6538 ™); assay: Bacteriostasis, log reduction; type: cell-based; details: S. aureus ATCC 6538
# Method: as §1, §2, §3, §4, §5, §6, §7, §8, §9
# [7] = test system: S. aureus (MRSA) (derived from ATCC ® 33593 ™); assay: Bacteriostasis, log reduction; type: cell-based; details: S. aureus (MRSA) ATCC 33593
# Method: as §1, §2, §3, §4, §5, §6, §7, §8, §9
# [8] = test system: S. epidermidis (derived from ATCC ® 14990 ™); assay: Bacteriostasis, log reduction; type: cell-based; details: S. epidermidis ATCC 14990
# Method: as §1, §2, §3, §4, §5, §6, §7, §8, §9
# [9] = test system: wound; details: in a GO-HA matrix; cited from earlier work
# [10] = test system: HEK293 SuperTOPFlash reporter cells, Wnt promoter; assay: HEK CELL Wnt Assay (luciferase reporter); type: cell-based; details: serial dilutions, with or without 50 ng/mL Wnt3a; 18 h
# How it was run: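 Reporter cells were seeded 24 h before dosing with serial dilutions ([…] to 1 nM), with or without 50 ng/mL Wnt3a, and incubated 18 h. Untreated cells served as negative control, with luciferase as read-out.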
# [11] = test system: TK2; details: cell-free assay; read-out: IC50, TK2 inhibition; cited from earlier work
# [12] = cited from earlier work
# [13] = test system: ear punch wound; details: cited from earlier work
# [14] = test system: CRE, F-κB, or TGF-β; details: cited from earlier work
structure (smiles),measurement,setting,value
"Oc1nc(-c2ccc(C(F)(F)F)cc2)nc2c1CSCC2 [XAV939, reference compound]",IC50,[1],11 nM
same,Average result,[2]; 24 h,<200
same,Log Reduction,[2]; 24 h,>3.1
same,Log Value,[2]; 24 h,<2.3
same,Average result,[2]; 72 h,<200
same,Log Reduction,[2]; 72 h,>3.1
same,Log Value,[2]; 72 h,<2.3
same,Average result,[3]; 24 h,2.8 × 10^4
same,Log Reduction,[3]; 24 h,1.0
same,Log Value,[3]; 24 h,4.4
same,Average result,[3]; 72 h,<200
same,Log Reduction,[3]; 72 h,>3.1
same,Log Value,[3]; 72 h,<2.3
same,Average result,[4]; 24 h,2.6 × 10^5
same,Log Reduction,[4]; 24 h,No
same,Log Value,[4]; 24 h,5.4
same,Average result,[4]; 72 h,1.7 × 10^5
same,Log Reduction,[4]; 72 h,No
same,Log Value,[4]; 72 h,5.1
same,Average result,[5]; 24 h,2.7 × 10^3
same,Log Reduction,[5]; 24 h,1.9
same,Log Value,[5]; 24 h,3.4
same,Average result,[5]; 72 h,<200
same,Log Reduction,[5]; 72 h,>3.0
same,Log Value,[5]; 72 h,<2.3
same,Average result,[6]; 24 h,2.5 × 10^3
same,Log Reduction,[6]; 24 h,1.9
same,Log Value,[6]; 24 h,3.4
same,Average result,[6]; 72 h,1.7 × 10^5
same,Log Reduction,[6]; 72 h,0.1
same,Log Value,[6]; 72 h,5.2
same,Average result,[7]; 24 h,8.7 × 10^4
same,Log Reduction,[7]; 24 h,No
same,Log Value,[7]; 24 h,4.9
same,Average result,[7]; 72 h,<6.8 × 10^3
same,Log Reduction,[7]; 72 h,>0.8
same,Log Value,[7]; 72 h,<3.8
same,Average result,[8]; 24 h,5.5 × 10^4
same,Log Reduction,[8]; 24 h,0.1
same,Log Value,[8]; 24 h,4.7
same,Average result,[8]; 72 h,<200
same,Log Reduction,[8]; 72 h,>2.5
same,Log Value,[8]; 72 h,<2.3
same,quality of wound healing,[9],substantial improvement to the quality of wound healing
same,IC50,[10],50 nM
same,IC50,[11],4 nM
same,solubility in water-based solutions,[12],poor solubility in water-based solutions
same,aqueous solubility,[12]; water,< 1 µg/mL
same,cartilage regeneration and healing,[13]; 2 mm biopsy punch wound in cartilaginous region of C57B1/CJ mouse,increased cartilage regeneration and healing
same,wound closure rate and fibrosis,"[13]; topical, mouse ear punch",significantly increased rate of wound closure with reduced fibrosis (scarring)
same,"effect on CRE, F-κB, or TGF-β",[14],"does not affect CRE, F-κB, or TGF-β"
